Where two headings read alike, the source gives them in different places.
Tests used:
[1] = test system: submissive rats; conditions: literature, cited from earlier work
[2] = test system: submissive rats; experiment: Reduction of Submissive Behavior Model (RSBM) of depression, dominant-submissive rat food competition test; type: in vivo, Sprague-Dawley rats
Source text: (§1) In this study, the effects of COMPOUND #7 on dominant or submissive behavior in pairs of rats competing for food are examined. It has been shown that anti-manic drugs, including anticonvulsants, decrease dominance and antidepressant drugs reduce submissiveness. This model uses dominant behavior as a model of mania and submissive behavior as a model of depression. The dominance and submissiveness is defined in a competition test and measured as the relative success of two food-restricted rats to gain access to a feeder. Rats are randomly paired and placed in an apparatus allowing them to compete for a food reward. The dominant-submissive relationship develops over a 2-week period. The submissive or dominant animals in pairs selected after 2 weeks of training were treated orally […] (b.i.d.) with COMPOUND #7 at 3 or 30 mg/kg for 5 weeks. The partner of the drug-treated animal was treated with vehicle.
(§2) The objective of this study was to determine if COMPOUND #7 active in the Reduction of Submissive Behavior Model (RSBM) of depression and the Reduction of Dominant Behavior Model (RDBM) of mania. Measurements were made at two doses (3 and 30 mg/kg) after oral twice a day (b.i.d.) administration. The effect of the drug in the RSBM was compared to the effect of fluoxetine (10 mg/kg) and vehicle (0.5% methylcellulose). The effect of the drug in the RDBM was compared with the effect of lithium (100 mg/kg) and vehicle (0.5% methylcellulose). The endpoints measured were the development of a significant reduction of submissive or dominant behavior and its time of onset.
The DSR developed by two rats competing for food uses the apparatus in FIG. 1. The methodology and equipment are described in several publications; (See: Malatynska E, Goldenberg R, Shuck L, Haque A, Zamecki P, Crites G, Schindler N, Knapp R J. Reduction of submissive behavior in rats: a test for antidepressant drug activity. Pharmacology 2002; 64:8; Malatynska E, Rapp R, Crites G. Dominant behavior measured in a competition test as a model of mania. In: International Behavioral Neuroscience Society Meeting, ed. IBNSCapri, Italy, 2002, p 26; Carpenter L L, Leon Z, Yasmin S, Price L H. Do obese depressed patients respond to topiramate? A retrospective chart review. J Affect Disord 2002; 69:251; McElroy S L, Zarate C A, Cookson J, Suppes T, Huffman R F, Greene P, Ascher J. A 52-week, open-label continuation study of lamotrigine in the treatment of bipolar depression. J Clin Psychiatry 2004; 65:204; Bonnet U. Moclobemide: therapeutic use and clinical studies. CNS Drug Rev 2003; 9:97; Danysz W, Plaznik A, Kostowski W, Malatynska E, Jarbe T U, Hiltunen A J, Archer T. Comparison of desipramine, amitriptyline, zimeldine and alaproclate in six animal models used to investigate antidepressant drugs. Pharmacol Toxicol 1988; 62:42; Knapp R J, Goldenberg R, Shuck C, Cecil A, Watkins J, Miller C, Crites G, Malatynska E. Antidepressant activity of memory-enhancing drugs in the reduction of submissive behavior model. Eur J Pharmacol 2002; 440:27; Kostowski W, Malatynska E, Plaznik A, Dyr W, Danysz W. Comparative studies on antidepressant action of alprazolam in different animal models. Pol J Pharmacol Pharm 1986; 38, 471 and Malatynska E, De Leon I, Allen D, Yamamura H I. Effects of amitriptyline on GABA-stimulated ^36Cl^− uptake in relation to a behavioral model of depression. Brain Res Bull 1995; 37:53) In the experiments described in this report Sprague-Dawley rats weighing 160 to 180 g were used. […]

[3] = test system: dominant rats; conditions: administered to dominant rats, literature; cited from earlier work
[4] = test system: Male rats of Wistar (Han) strain; experiment: Behavioral despair or forced swim test in the rat; type: in vivo; conditions: 4 hours and 60 minutes before the test, 5 minute test
Source text: The behavioral despair or forced swim test (FST) in rats as in mice (see Example 2) is an acute test of anti-depressant activity. Antidepressant-like compounds are known to be active in this assay (e.g., tricyclics, MAO inhibitors, SSRIs), although activity can vary with mouse strain differences, as would be known to one of skill in the art. (See, Porsolt, R D et al. Behavioral despair in rats: a new model sensitive to antidepressant treatments, Eur. J. Pharmacol., 47, 379-391, 1978) and also (see; Porsolt, R D et al. Behavioral despair in mice: A preliminary screening test for antidepressants. Arch Int Pharmacodyn Ther 229; 327-336:1977)
The assay procedure is as follows. Male rats of Wistar (Han) strain, 185-245 g body weight supplied by Elevage Janvier, 53940 Le Genest-Saint-Isle, France were used. These animals were administered 1, 3 and 30 mg/kg of COMPOUND #7 p.o. 24 hours, 4 hours and 60 minutes before the test. Active control animals were given imipramine 64 mg/kg under the same conditions. […] Imipramine at 64 mg/kg administered under the same experimental conditions decreased the duration of immobility by 44% as compared to vehicle.

[5] = test system: Male NMRI mice; experiment: Mouse tail suspension test (TST); type: in vivo
Description: The tail suspension test (TST) is an acute test which is predictive of anti-depressant activity of a test compound. (See, Steru, L. et al. Psychopharmacology, 85, 367-370, 1985)
Male NMRI mice (22-26 g; n=12 mice per dose) is given a single dose of vehicle (aqueous solution of 1 equivalent tartaric acid+0.45% NaCl+10% cyclodextrin, i.p.), imipramine (128 mg/kg, p.o. in an aqueous solution of 0.9% NaCl) or COMPOUND #7 (at 1, 3 AND 30 mg/kg, p.o.) 60 min prior to tail suspension. All substances were administered in a volume of […]. In this test, the mice are submitted to an unpleasant and inescapable situation (i.e. hanging by the tail) for 6 min. Once suspended, motor activity diminishes rapidly and the mice become immobile. A compound is considered active as an antidepressant in this model, when there is a reduction in immobility time. Viewpoint video-tracking software is utilized to record immobility time.

[6] = test system: Male CF-1 mice; experiment: Forced swimming test in mice (behavioral despair); type: in vivo; conditions: 1 h before test; for reduction in immobility: 4-minute test period
Source text: Porsolt (1977) proposed a model for screening antidepressants in mice, called the “behavioral despair” test. (See, Porsolt, R D et al. Behavioral despair in mice: A preliminary screening test for antidepressants. Arch Int Pharmacodyn Ther 229; 327-336:1977 and Porsolt, R D et al. Behavioral despair in rats: a new model sensitive to antidepressant treatments, Eur. J. Pharmacol., 47, 379-391, 1978). This test is also called the forced swim test In this test, a mouse is placed in a container of water and swims, apparently trying to escape. The animal then alternates periods of swimming and floating, i.e., remaining immobile. Antidepressants are among those drugs that reduce the periods of immobility. In the present report COMPOUND #7 was tested in the forced swimming procedure in mice to determine whether the compound had any potential antidepressant activity.
Male CF-1 mice (18-22 g) were purchased from Charles River Breeding Laboratories, Kingston, N.Y. Animals were housed in standing wire cages with free access to food and water. Experiments were initiated only after an acclimation period of at least 3 days to the animal room environment which consisted of automatically controlled illumination with a 12-hour light/dark cycle and controlled temperature and relative humidity.
COMPOUND #7 was dissolved in 30% polyethylene glycol 400 in deionized water and administered to animals by oral gavage in a volume of 0.1 ml/10 g body weight.
The method was similar to that described by Porsolt et al. (1977)1 with minor modifications (See, Porsolt R D, Bertin A, Jalfre M. Behavioral despair in mice: A preliminary screening test for antidepressants. Arch Int Pharmacodyn Ther 229; 327-336:1977)
Mice were pre-swum the day before the test for 5 minutes. On the test day, mice were dosed orally with either test compound or vehicle. One hour later each animal was placed in a glass cylinder (1000-ml beaker; height 14 cm, diameter 11.5 cm) containing water up to a height of 9 cm (water temperature at 25° C.). Following a 2-minute pretest, immobility of each mouse was recorded for a 4-minute test period. Immobility was defined as the animal making only those movements to stay afloat, especially combined with lack of movement of its hind legs. Each group consisted of 8 mice.

[7] = test system: dominant rats; experiment: Reduction of Dominant Behavior Model (RDBM) of mania, dominant-submissive rat food competition test; type: in vivo, Sprague-Dawley rats
Source text: as §1, §2
The DSR developed by two rats competing for food uses the apparatus in FIG. 1. The methodology and equipment are described in several publications; (See: Malatynska E, Goldenberg R, Shuck L, Haque A, Zamecki P, Crites G, Schindler N, Knapp R J. Reduction of submissive behavior in rats: a test for antidepressant drug activity. Pharmacology 2002; 64:8; Malatynska E, Rapp R, Crites G. Dominant behavior measured in a competition test as a model of mania. In: International Behavioral Neuroscience Society Meeting, ed. IBNSCapri, Italy, 2002, p 26; Carpenter L L, Leon Z, Yasmin S, Price L H. Do obese depressed patients respond to topiramate? A retrospective chart review. J Affect Disord 2002; 69:251; McElroy S L, Zarate C A, Cookson J, Suppes T, Huffman R F, Greene P, Ascher J. A 52-week, open-label continuation study of lamotrigine in the treatment of bipolar depression. J Clin Psychiatry 2004; 65:204; Bonnet U. Moclobemide: therapeutic use and clinical studies. CNS Drug Rev 2003; 9:97; Danysz W, Plaznik A, Kostowski W, Malatynska E, Jarbe T U, Hiltunen A J, Archer T. Comparison of desipramine, amitriptyline, zimeldine and alaproclate in six animal models used to investigate antidepressant drugs. […]

[8] = treatment of the submissive subject for 3 weeks

For `CN1C(=O)CN=C(c2ccccc2)c2cc(Cl)ccc21` [diazepam], the “effect on submissive behavior” value ([1]; treatment of submissive rats, anxiolytic) is given as “ineffective”.

With `CC(N)Cc1ccccc1` (stereo not shown) [amphetamine, reference compound] the “effect on submissive behavior” value ([2]; treatment of submissive rats, psychostimulant, unpublished observation) was “ineffective”.

In the case of `CNCCC(Oc1ccc(C(F)(F)F)cc1)c1ccccc1` (stereo not shown) [fluoxetine, reference compound], the “onset of significant effect in submissive rats (treatment time)” value ([2]; 10 mg/kg i.p. once a day, previous experimental set) is given as 3 weeks and the “effect on submissive behavior” value [1, 8] is given as “reduced submissive behavior”.

For `Clc1cccc(Cl)c1N=C1NCCN1` [clonidine], the “effect on competitive behavior of dominant rats” value (from here on “effect on competitive behavior”) [3] is listed as “significantly reduced competitive behavior”.

For `CN(C)CCCN1c2ccccc2CCc2ccccc21` [imipramine, reference compound], the “decrease of duration of immobility as compared to vehicle” value ([4]; 64 mg/kg p.o. 24 hours) is given as 44%, the “effect on submissive behavior” value [1, 8] is given as “reduced submissive behavior” and the “decrease of duration of immobility as compared with control” value ([5]; 128 mg/kg p.o. 60 minutes before the test) is given as −69%.

In the case of `CCCC(CCC)C(=O)[O-].[Na+]` [sodium valproate], the “effect on competitive behavior” value [3] is given as “significantly reduced competitive behavior”.

In the case of `NC(=O)N1c2ccccc2C=Cc2ccccc21` [carbamazepine], the “effect on competitive behavior” value [3] is listed as “significantly reduced competitive behavior”.

Work on `NC(=O)OC[C@@H](O)c1ccccc1Cl` [COMPOUND #7] yielded a reduction in immobility ([6]; 1 mg/kg oral) of 25%, a reduction in immobility ([6]; 3 mg/kg oral) of 28% and a reduction in immobility ([6]; 10 mg/kg oral) of 43%. The “reduction in immobility (significance)” value ([6]; 17.3 mg/kg oral) was “not significant”, the “reduction in immobility (significance)” value ([6]; 30 mg/kg oral) was “not significant” and the “effect on duration of immobility” value ([4]; 1, 3 and 30 mg/kg p.o. 24 hours) was “did not affect the duration of immobility”. For the same molecule, the “effect on submissive rat behavior (time spent on feeder)” value ([2]; 3 mg/kg b.i.d. p.o. for 5 weeks, submissive rat treated, partner vehicle) was “did not have any effect”, the “onset of increased competitiveness of submissive rats (treatment time)” value ([2]; 30 mg/kg b.i.d. p.o.) was 1 week and the “effect on competitiveness of submissive rat (time spent on feeder, dominance level)” value ([2]; 30 mg/kg b.i.d. p.o. for 5 weeks, vs vehicle-treated submissive rats) was “significantly increased competitiveness”. For the same molecule, the “effect on duration of immobility” value ([5]; 1, 3 and 30 mg/kg p.o. 60 minutes before the test) was “did not affect the duration of immobility”, the “onset of significant decrease of dominant rat performance (treatment time)” value ([7]; 3 mg/kg b.i.d. p.o.) was 3 weeks and the “effect on performance of dominant rats (time spent on feeder)” value ([7]; 3 mg/kg b.i.d. p.o. for 5 weeks, dominant rat treated, partner vehicle) was “decreased the performance of dominant rats”. The “onset of increased competitiveness of dominant rats (treatment time)” value ([7]; 30 mg/kg b.i.d. p.o.) was 2 weeks and the “effect on competitiveness of dominant rats” value ([7]; 30 mg/kg b.i.d. p.o. for 5 weeks, vs vehicle treated dominant rats) was “significantly increased the competitiveness”.

In the case of `CNCCCN1c2ccccc2CCc2ccccc21` [desipramine], the “effect on submissive behavior” value [1, 8] is listed as “reduced submissive behavior”.

— patent publication US20080317883A1, “METHODS FOR TREATING DEPRESSION” (priority 2006, published 2008)
